Measured values taken from patent US8188135B2, “Compounds as cannabinoid receptor ligands” (priority 2008, dated 2012).
Where two headings read alike, the source gives them in different places.

How the values were obtained:
rat CB2 = biological target: T1, rat CB2 (Rattus norvegicus, UniProt Q9QZN9); test: rat CB2 radioligand binding assay ([3H]CP 55,940 competition); parameters: expressed in transfected cells; host or cells: HEK293; conditions: HEK293 membranes, 0.5 nM [3H]CP 55,940
T1 sequence (Q9QZN9 1-360): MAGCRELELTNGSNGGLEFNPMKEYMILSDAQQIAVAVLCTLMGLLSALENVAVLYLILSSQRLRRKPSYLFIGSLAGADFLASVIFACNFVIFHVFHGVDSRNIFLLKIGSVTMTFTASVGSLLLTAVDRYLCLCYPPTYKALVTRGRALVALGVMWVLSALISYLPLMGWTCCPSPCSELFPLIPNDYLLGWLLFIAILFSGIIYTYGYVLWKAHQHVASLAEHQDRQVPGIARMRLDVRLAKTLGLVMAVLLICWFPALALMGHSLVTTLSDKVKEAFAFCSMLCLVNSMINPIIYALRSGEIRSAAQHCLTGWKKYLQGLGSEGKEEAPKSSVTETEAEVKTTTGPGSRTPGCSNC
Experimental: (§1) The CB1 and CB2 radioligand binding assays described herein are utilized to ascertain the affinity of compounds of the present application for binding to CB2 relative to CB1 receptors.
HEK293 cells stably expressing rat CB2 receptors were grown until a confluent monolayer was formed. Briefly, the cells were harvested and homogenized in TE buffer (50 mM Tris-HCl, 1 mM MgCl2, and 1 mM EDTA) using a polytron for 2×10 second bursts in the presence of protease inhibitors, followed by centrifugation at 45,000×g for 20 minutes. The final membrane pellet was re-homogenized in storage buffer (50 mM Tris-HCl, 1 mM MgCl2, and 1 mM EDTA and 10% sucrose) and frozen at −78° C. until used. Saturation binding reactions were initiated by the addition of membrane preparation (protein concentration of 20 μg/well for rat CB2) into wells of a deep well plate containing [^3H]CP 55,940 (120 Ci/mmol, a nonselective CB agonist commercially available from Tocris) in assay buffer (50 mM Tris, 2.5 mM EDTA, 5 mM MgCl2, and 0.5 mg/mL fatty acid free BSA, pH 7.4). After 45 min incubation at 30° C., binding reaction was terminated by the addition of […] of cold assay buffer followed by rapid vacuum filtration through a UniFilter-96 GF/C filter plates (pre-soaked in 1 mg/mL BSA for 2 hours). The bound activity was counted in a TopCount using Microscint-20. Saturation experiments were conducted with twelve concentrations of [^3H]CP 55,940 ranging from 0.01 to 8 nM. Competition experiments were conducted with 0.5 nM [^3H]CP 55,940 and five concentrations of displacing ligands selected from the range of 0.01 nM to 10 μM. The addition of 10 μM unlabeled CP 55,940 (Tocris, Ellisville, Mo.) was used to assess nonspecific binding.

human CB2 receptors = biological target: T2, human CB2 receptors (Homo sapiens, UniProt P34972); test: human CB2 radioligand binding assay ([3H]CP 55,940 competition); conditions: HEK293 membranes, 0.5 nM [3H]CP 55,940
T2 construct: expressed in transfected cells; host or cells: HEK293
T2 sequence (P34972 whole entry): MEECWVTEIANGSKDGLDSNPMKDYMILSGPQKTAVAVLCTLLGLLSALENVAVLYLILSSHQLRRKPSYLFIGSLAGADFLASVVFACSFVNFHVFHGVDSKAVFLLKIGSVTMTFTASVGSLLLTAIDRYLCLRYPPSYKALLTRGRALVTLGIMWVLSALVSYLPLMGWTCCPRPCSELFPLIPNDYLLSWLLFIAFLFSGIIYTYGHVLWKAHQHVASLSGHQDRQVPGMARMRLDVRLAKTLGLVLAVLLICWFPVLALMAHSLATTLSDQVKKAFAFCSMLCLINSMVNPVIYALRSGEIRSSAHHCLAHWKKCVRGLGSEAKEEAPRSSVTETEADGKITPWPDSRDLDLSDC
Experimental: as §1
HEK293 cells stably expressing human CB2 receptors were grown until a confluent monolayer was formed. Briefly, the cells were harvested and homogenized in TE buffer (50 mM Tris-HCl, 1 mM MgCl2, and 1 mM EDTA) using a polytron for 2×10 second bursts in the presence of protease inhibitors, followed by centrifugation at 45,000×g for 20 minutes. The final membrane pellet was re-homogenized in storage buffer (50 mM Tris-HCl, 1 mM MgCl2, and 1 mM EDTA and 10% sucrose) and frozen at −78° C. until used. Saturation binding reactions were initiated by the addition of membrane preparation (protein concentration of 5 μg/well for human CB2) into wells of a deep well plate containing [^3H]CP 55,940 (120 Ci/mmol, a nonselective CB agonist commercially available from Tocris) in assay buffer (50 mM Tris, 2.5 mM EDTA, 5 mM MgCl2, and 0.5 mg/mL fatty acid free BSA, pH 7.4). After 90 min incubation at 30° C., binding reaction was terminated by the addition of 300 μL/well of cold assay buffer followed by rapid vacuum filtration through a UniFilter-96 GF/C filter plates (pre-soaked in 1 mg/mL BSA for 2 hours). The bound activity was counted in a TopCount using Microscint-20. Saturation experiments were conducted with twelve concentrations of [^3H]CP 55,940 ranging from 0.01 to 8 nM. Competition experiments were conducted with 0.5 nM [^3H]CP 55,940 and five concentrations (0.01 nM to 10 μM) of displacing ligands. The addition of 10 μM unlabeled CP 55,940 (Tocris, Ellisville, Mo.) was used to assess nonspecific binding.

Row | SMILES | Ki (rat CB2; rat CB2 (Ki, nM)) [nM] | Ki (human CB2 receptors; human CB2 (Ki, nM)) [nM] | Ki (rat CB2; read-out: rat CB2 (Ki)) [nM] | Ki (human CB2 receptors; read-out: human CB2 (Ki)) [nM]
1 | Cn1c(C(C)(C)C)c/c(=N\C(=O)c2cc(C(F)(F)F)ccc2OC[C@@H]2CCCN2S(C)(=O)=O)n1C[C@H]1CCCO1 [Example 61, N-{(3E)-5-tert-butyl-1-methyl-2-[(2R)-tetrahydrofuran-2-ylmethyl]-1,2-dihydro-3 H-pyrazol-3-ylidene}-2-{[(2S)-1-(methylsulfonyl)pyrrolidin-2-yl]methoxy}-5-(trifluoromethyl)benzamide] | 433 | > 1000 | – | –
2 | CSC(C)(C)COc1ccc(C(F)(F)F)cc1C(=O)/N=c1\cc(C(C)(C)C)n(C)n1C[C@H]1CCCO1 [Example 64, N-{(3E)-5-tert-butyl-1-methyl-2-[(2R)-tetrahydrofuran-2-ylmethyl]-1,2-dihydro-3H-pyrazol-3-ylidene}-2-[2-methyl-2-(methylthio)propoxy]-5-(trifluoromethyl)benzamide] | – | – | 114 | 328
3 | Cn1c(C(C)(C)C)c/c(=N\C(=O)c2cc(C(F)(F)F)ccc2OCC(C)(C)S(C)(=O)=O)n1C[C@H]1CCCO1 [Example 65, N-{(3E)-5-tert-butyl-1-methyl-2-[(2R)-tetrahydrofuran-2-ylmethyl]-1,2-dihydro-3H-pyrazol-3-ylidene}-2-[2-methyl-2-(methylsulfonyl)propoxy]-5-(trifluoromethyl)benzamide] | – | – | > 1000 | > 1000
4 | Cn1c(C(C)(C)C)c/c(=N\C(=O)c2cc(C(F)(F)F)ccc2OC[C@@H]2CCN2S(C)(=O)=O)n1C[C@H]1CCCO1 [Example 67, N-{(3E)-5-tert-butyl-1-methyl-2-[(2R)-tetrahydrofuran-2-ylmethyl]-1,2-dihydro-3H-pyrazol-3-ylidene}-2-{[(2S)-1-(methylsulfonyl)azetidin-2-yl]methoxy}-5-(trifluoromethyl)benzamide] | 70 | > 1000 | – | –
5 | CN1CCC[C@H]1COc1ccc(C(F)(F)F)cc1C(=O)/N=C1\OC(C(C)(C)C)CN1C[C@H]1CCCO1 (stereo partly drawn) [Example 73, N-{(2Z)-5-tert-butyl-3-[(2R)-tetrahydrofuran-2-ylmethyl]-1,3-oxazolidin-2-ylidene}-2-{[(2S)-1-methylpyrrolidin-2-yl]methoxy}-5-(trifluoromethyl)benzamide] | – | – | 230 | 291
6 | C/C(COc1ccc(C(F)(F)F)cc1C(=O)/N=c1\cc(C(C)(C)C)n(C)n1C[C@H]1CCCO1)=N\OC1CCCCO1 (some centres unmarked) [Example 79] | – | – | 128 | > 1000
7 | Cn1c(C(C)(C)C)c/c(=N\C(=O)c2cc(C(F)(F)F)ccc2OCC2CCSCC2)n1C[C@H]1CCCO1 [Example 80, N-{(3E)-5-tert-butyl-1-methyl-2-[(2R)-tetrahydrofuran-2-ylmethyl]-1,2-dihydro-3 H-pyrazol-3-ylidene}-2-(tetrahydro-2H-thiopyran-4-ylmethoxy)-5-(trifluoromethyl)benzamide] | 75 | – | – | 126
8 | CSCCCCOc1ccc(C(F)(F)F)cc1C(=O)/N=c1\cc(C(C)(C)C)n(C)n1C[C@H]1CCCO1 [Example 82, N-{(3E)-5-tert-butyl-1-methyl-2-[(2R)-tetrahydrofuran-2-ylmethyl]-1,2-dihydro-3 H-pyrazol-3-ylidene}-2-[4-(methylthio)butoxy]-5-(trifluoromethyl)benzamide] | 2.6 | 5.4 | – | –
9 | Cn1c(C(C)(C)C)c/c(=N\C(=O)c2cc(C(F)(F)F)ccc2OCCCCS(C)(=O)=O)n1C[C@H]1CCCO1 [Example 83, N-{(3E)-5-tert-butyl-1-methyl-2-[(2R)-tetrahydrofuran-2-ylmethyl]-1,2-dihydro-3 H-pyrazol-3-ylidene}-2-[4-(methylsulfonyl)butoxy]-5-(trifluoromethyl)benzamide] | 305 | > 1000 | – | –
10 | CCCCn1nc(C(C)(C)C)s/c1=N\C(=O)c1cc(C(F)(F)F)ccc1OCC(C)(C)O [Example 84, N-[(2Z)-3-butyl-5-tert-butyl-1,3,4-thiadiazol-2(3H)-ylidene]-2-(2-hydroxy-2-methylpropoxy)-5-(trifluoromethyl)benzamide] | 1.5 | 1.8 | – | –
